# Results taken from BindingDB's records for doi:10.3109/14756366.2012.681653 (Atatürk University, 2013).
# Where a name gives a salt, the structure may show the parent alone.
# Biological target: Serum paraoxonase/arylesterase 1 (Homo sapiens, UniProt P27169)
# Experiment: PON Activity Assay
# Experimental: PON activities were measured in the presence of different drug concentrations. Control activity was assumed to be 100% in the absence of inhibitor. Experiments of all compounds were tested in triplicate at each concentration used and Activity%-[Drug] graphs were drawn for each drug. Determination of Ki values was performed by using three different inhibitor concentrations. In these experiments, paraoxone was used as substrate at five different concentrations (0.15, 0.3, 0.45, 0.6, and 0.75 mM).
# Sequence of Serum paraoxonase/arylesterase 1 (P27169 whole entry): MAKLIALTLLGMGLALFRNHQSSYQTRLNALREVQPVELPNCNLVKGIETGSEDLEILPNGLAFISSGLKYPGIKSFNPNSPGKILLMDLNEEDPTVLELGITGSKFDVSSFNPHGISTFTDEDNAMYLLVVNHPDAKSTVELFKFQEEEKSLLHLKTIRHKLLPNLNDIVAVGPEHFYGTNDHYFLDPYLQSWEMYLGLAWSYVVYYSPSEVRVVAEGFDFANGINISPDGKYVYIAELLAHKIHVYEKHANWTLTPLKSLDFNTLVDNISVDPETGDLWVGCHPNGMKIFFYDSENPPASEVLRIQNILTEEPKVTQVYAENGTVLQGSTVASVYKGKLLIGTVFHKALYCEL
row,Compound,Ki
1,"CCC[C@@H]1C[C@@H](C(=O)N[C@@H]([C@H]2O[C@H](SC)[C@H](O)[C@@H](O)[C@H]2O)[C@@H](C)O)N(C)C1 [(2S,4R)-N-((1R,2R)-2-hydroxy-1-((2R,3R,4S,5R,6R)-3,4,5-trihydroxy-6-(methylthio)-tetrahydro-2H-pyran-2-yl)propyl)-1-methyl-4-propylpyrrolidine-2-carboxamide]",18.3 mM
2,CCC[C@@H]1C[C@@H](C(=O)N[C@@H]([C@H]2O[C@H](SC)[C@H](OP(=O)(O)O)[C@@H](O)[C@H]2O)[C@H](C)Cl)N(C)C1 [Clindamycin phosphate],35.8 mM
3,CCN[C@@H]1C[C@H](N)[C@H](O[C@H]2OC(CN)=CC[C@H]2N)[C@H](O)[C@H]1O[C@H]1OC[C@](C)(O)[C@H](NC)[C@H]1O [Netilmycin sulfate],3.73 mM
4,CN(C)[C@@H]1C(=O)C(C(N)=O)=C(O)[C@@]2(O)C(=O)C3=C(O)c4c(O)cccc4[C@@](C)(O)[C@H]3[C@H](O)[C@@H]12 [Oxytetracycline hydrochloride],0.2 mM
5,CN[C@H]1[C@@H](O[C@@H]2[C@@H](O[C@H]3[C@H](O)[C@@H](O)[C@H](N=C(N)N)[C@@H](O)[C@@H]3N=C(N)N)O[C@H](C)[C@@]2(O)C=O)O[C@H](CO)[C@@H](O)[C@@H]1O [Streptomycin sulfate],56.3 mM
